Laboratory results published in patent publication US20250288683A1, “TETRAHYDROISOQUINOLINE HETEROBIFUNCTIONAL BCL-XL DEGRADERS” (Treeline Biosciences, Inc., priority 2022, published 2025).

Target: T1, Human BCL-XL protein (N-terminal HiBiT tagged BCL-XL in HT1080 cells) (Homo sapiens, UniProt Q07817)
T1 construct: expressed in transfected cells; host or cells: HT-1080 (ATCC CCL-121), stably transduced with lentivirus pLV-UBC-N-HiBiT-BCL-XL-PGK-puro and selected with puromycin
Experiment: HiBiT based degradation assay
Type: cell-based
Details: HT1080 cells expressing N-terminal HiBiT tagged BCL-XL, 24 h, normalized with DMSO control
Text: HiBiT Based Degradation Assay
Human BCL-XL protein coding open reading frame fused with N-terminal HiBiT coding sequence was synthesized from Integrated DNA Technologies (IDT). Next, N-HiBiT-BCL-XL sequence was cloned into pLV-UBC-PGK-Puro, a lentivirus plasmid purchased from Vectorbuilder, to generate pLV-UBC-N-HiBiT-BCL-XL-PGK-puro. Lentiviral particles were generated from Lenti-X™ 293T cells (Clontech) by co-transfection of pLV-UBC-N-HiBiT-BCL-XL-PGK-puro plasmids and lentiviral packaging plasmid mix (Cellecta). HT-1080 [HT1080](ATCC CCL-121) cells were infected with the lentivirus, and HT1080 cells stably integrated with the lentiviral vectors were established by incubation with 1 μg/mL puromycin (Thermofisher).
HT1080 cells expressing N-terminal HiBiT tagged BCL-XL were dispensed into a 384-well plate pre-spotted with compounds at varying concentrations. Three thousand cells were seeded into each well in 40 μL of RPMI 1640 media. […] After incubation, luminescence was read on a PHERAstar FSX Plate Reader (BMG). BCL-XL degradation at each indicated concentration was normalized with the DMSO control. The BCL-XL degradation curves were plotted using a four-parameter logistic model. For compounds displaying hook effects, the curve fitting was performed using the bottom point of the hook curves (i.e., the point of Ymin) as the bottom plateau to calculate EC50.

T1 sequence (Q07817 whole entry): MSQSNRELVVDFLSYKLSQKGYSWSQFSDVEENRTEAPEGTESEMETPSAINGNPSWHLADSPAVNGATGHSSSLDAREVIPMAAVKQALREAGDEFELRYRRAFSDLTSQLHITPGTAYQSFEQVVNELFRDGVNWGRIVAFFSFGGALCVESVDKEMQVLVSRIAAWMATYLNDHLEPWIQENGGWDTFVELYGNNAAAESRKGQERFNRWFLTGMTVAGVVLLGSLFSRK

| SMILES | Ymin (24 h) |
| --- | --- |
| Cc1ncsc1-c1ccc([C@H](C)NC(=O)[C@@H]2C[C@@H](O)CN2C(=O)[C@@H](NC(=O)C[C@H]2CC[C@@H](Oc3cccc(-c4ccc(N5CCc6cccc(C(=O)Nc7nc8ccccc8s7)c6C5)nc4C(=O)O)c3C)CC2)C(C)(C)C)cc1 [Compound 116b, 6-(8-(benzo[d]thiazol-2-ylcarbamoyl)-3,4-dihydroisoquinolin-2 (1H)-yl)-3-(3-(((1R,4s)-4-(2-(((S)-1-((2S,4R)-4-hydroxy-2-(((S)-1-(4-(4-methylthiazol-5-yl)phenyl)ethyl)carbamoyl)pyrrolidin-1-yl)-3,3-dimethyl-1-oxobutan-2-yl)amino)-2-oxoethyl)cyclohexyl)oxy)-2-methylphenyl)picolinic acid] | B (50% ≤ Ymin < 70%) |
| Cc1ncsc1-c1ccc([C@H](C)NC(=O)[C@@H]2C[C@@H](O)CN2C(=O)[C@@H](NC(=O)C(F)(F)C[C@H]2CC[C@H](Oc3cccc(-c4ccc(N5CCc6cccc(C(=O)Nc7nc8ccccc8s7)c6C5)nc4C(=O)O)c3C)CC2)C(C)(C)C)cc1 [Compound 117a, 6-(8-(benzo[d]thiazol-2-ylcarbamoyl)-3,4-dihydroisoquinolin-2 (1H)-yl)-3-(3-(((1S,4r)-4-(2,2-difluoro-3-(((S)-1-((2S,4R)-4-hydroxy-2-(((S)-1-(4-(4-methylthiazol-5-yl)phenyl)ethyl)carbamoyl)pyrrolidin-1-yl)-3,3-dimethyl-1-oxobutan-2-yl)amino)-3-oxopropyl)cyclohexyl)oxy)-2-methylphenyl)picolinic acid] | B (50% ≤ Ymin < 70%) |
| CC(=O)O[C@@H]1C[C@@H](C(=O)N[C@@H](C)c2ccc(-c3scnc3C)cc2)N(C(=O)[C@@H](NC(=O)CCCc2ccc(Oc3cccc(-c4ccc(N5CCc6cccc(C(=O)Nc7nc8ccccc8s7)c6C5)nc4C(=O)O)c3C)cc2)C(C)(C)C)C1 [Compound 118a, 3-[3-[4-[4-[[(1S)-1-[(2S,4R)-4-acetoxy-2-[[(1S)-1-[4-(4-methylthiazol-5-yl)phenyl]ethyl]carbamoyl]pyrrolidine-1-carbonyl]-2,2-dimethyl-propyl]amino]-4-oxo-butyl]phenoxy]-2-methyl-phenyl]-6-[8-(1,3-benzothiazol-2-ylcarbamoyl)-3,4-dihydro-1H-isoquinolin-2-yl]pyridine-2-carboxylic acid] | B (50% ≤ Ymin < 70%) |
| CC(=O)O[C@@H]1C[C@@H](C(=O)N[C@@H](C)c2ccc(-c3scnc3C)cc2)N(C(=O)[C@@H](NC(=O)C[C@H]2CC[C@H](Oc3cccc(-c4ccc(N5CCc6cccc(C(=O)Nc7nc8ccccc8s7)c6C5)nc4C(=O)O)c3C)CC2)C(C)(C)C)C1 [Compound 119a, 3-(3-(((1S,4r)-4-(2-(((S)-1-((2S,4R)-4-acetoxy-2-(((S)-1-(4-(4-methylthiazol-5-yl)phenyl)ethyl)carbamoyl)pyrrolidin-1-yl)-3,3-dimethyl-1-oxobutan-2-yl)amino)-2-oxoethyl)cyclohexyl)oxy)-2-methylphenyl)-6-(8-(benzo[d]thiazol-2-ylcarbamoyl)-3,4-dihydroisoquinolin-2 (1H)-yl)picolinic acid] | B (50% ≤ Ymin < 70%) |

Further lines, results first:

| Ymin (24 h) | SMILES |
| --- | --- |
| A (Ymin < 50%) | Cc1ncsc1-c1ccc([C@@H](NC(=O)[C@@H]2C[C@@H](O)CN2C(=O)[C@@H](NC(=O)CCCc2ccc(Oc3cccc(-c4ccc(N5CCc6cccc(C(=O)Nc7nc8ccccc8s7)c6C5)nc4C(=O)O)c3C)cc2)C(C)(C)C)C(F)(F)F)cc1 [Compound 120a, 6-[8-(1,3-benzothiazol-2-ylcarbamoyl)-3,4-dihydro-1H-isoquinolin-2-yl]-3-[3-[4-[4-[[(1S)-1-[(2S,4R)-4-hydroxy-2-[[(1R)-2,2,2-trifluoro-1-[4-(4-methylthiazol-5-yl)phenyl]ethyl]carbamoyl]pyrrolidine-1-carbonyl]-2,2-dimethyl-propyl]amino]-4-oxo-butyl]phenoxy]-2-methyl-phenyl]pyridine-2-carboxylic acid] |
| A (Ymin < 50%) | Cc1ncsc1-c1ccc([C@H](C)NC(=O)[C@@H]2C[C@@H](O)CN2C(=O)[C@@H](NC(=O)CCCc2ccc(Oc3cccc(-c4ccc(N5CCc6cccc(C(=O)Nc7nc8ccccc8s7)c6C5)nc4C(=O)O)c3C)cc2)C(C)(C)C)nc1 [Compound 121a, 6-[8-(1,3-benzothiazol-2-ylcarbamoyl)-3,4-dihydro-1H-isoquinolin-2-yl]-3-[3-[4-[4-[[(1S)-1-[(2S,4R)-4-hydroxy-2-[[(1S)-1-[5-(4-methylthiazol-5-yl)-2-pyridyl]ethyl]carbamoyl]pyrrolidine-1-carbonyl]-2,2-dimethyl-propyl]amino]-4-oxo-butyl]phenoxy]-2-methyl-phenyl]pyridine-2-carboxylic acid] |
| B (50% ≤ Ymin < 70%) | Cc1ncsc1-c1ccc([C@H](C)NC(=O)[C@@H]2C[C@@H](O)CN2C(=O)[C@@H](NC(=O)CN2CCC(Oc3cccc(-c4ccc(N5CCc6cccc(C(=O)Nc7nc8ccccc8s7)c6C5)nc4C(=O)O)c3C)CC2)C(C)(C)C)cc1 [Compound 122a, 6-[8-(1,3-benzothiazol-2-ylcarbamoyl)-3,4-dihydro-1H-isoquinolin-2-yl]-3-[3-[[1-[2-[[(1S)-1-[(2S,4R)-4-hydroxy-2-[[(1S)-1-[4-(4-methylthiazol-5-yl)phenyl]ethyl]carbamoyl]pyrrolidine-1-carbonyl]-2,2-dimethyl-propyl]amino]-2-oxo-ethyl]-4-piperidyl]oxy]-2-methyl-phenyl]pyridine-2-carboxylic acid] |
| A (Ymin < 50%) | Cc1ncsc1-c1ccc([C@H](C)NC(=O)[C@@H]2C[C@@H](O)CN2C(=O)[C@@H](NC(=O)CN2CCC(CCOc3cccc(-c4ccc(N5CCc6cccc(C(=O)Nc7nc8ccccc8s7)c6C5)nc4C(=O)O)c3C)CC2)C(C)(C)C)cc1 [Compound 123a, 6-(8-(benzo[d]thiazol-2-ylcarbamoyl)-3,4-dihydroisoquinolin-2 (1H)-yl)-3-(3-(2-(1-(2-(((S)-1-((2S,4R)-4-hydroxy-2-(((S)-1-(4-(4-methylthiazol-5-yl)phenyl)ethyl)carbamoyl)pyrrolidin-1-yl)-3,3-dimethyl-1-oxobutan-2-yl)amino)-2-oxoethyl)piperidin-4-yl)ethoxy)-2-methylphenyl)picolinic acid] |
| A (Ymin < 50%) | Cc1ncsc1-c1ccc([C@H](C)NC(=O)[C@@H]2C[C@@H](O)CN2C(=O)[C@@H](NC(=O)CN2CCC(CCCOc3cccc(-c4ccc(N5CCc6cccc(C(=O)Nc7nc8ccccc8s7)c6C5)nc4C(=O)O)c3C)CC2)C(C)(C)C)cc1 [Compound 124a, 6-[8-(1,3-benzothiazol-2-ylcarbamoyl)-3,4-dihydro-1H-isoquinolin-2-yl]-3-[3-[3-[1-[2-[[(1S)-1-[(2S,4R)-4-hydroxy-2-[[(1S)-1-[4-(4-methylthiazol-5-yl)phenyl]ethyl]carbamoyl]pyrrolidine-1-carbonyl]-2,2-dimethyl-propyl]amino]-2-oxo-ethyl]-4-piperidyl]propoxy]-2-methyl-phenyl]pyridine-2-carboxylic acid] |
